Test results as given in the supplement of paper PMC11061612.

Key:
Test in all cases: Bliss excess, mean over the matrix (fraction); higher = more synergy
SK-N-FI (Neuroblastoma) = tested on: SK-N-FI (Neuroblastoma)
Method in brief: (§1)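 Cell lines in DMEM/F12 or RPMI with 10% FBS were plated in 1536-well plates, held 24 hours at 37°C, 5% CO2, then given two-drug dose matrices for 72 hours (DMSO typically 0.2%). Viability was read by CellTiter-Glo 2.0 luminescence and scaled as inhibition from 0 (vehicle wells) to 1 (blank wells). Combination Emax is the second-highest inhibition in the matrix; Bliss excess is observed combination effect minus expected EA + EB − EA·EB, EA and EB being single-agent effects.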

[1] = tested on: SW1088 (Low Grade Glioma)
Method in brief: as §1

[2] = tested on: SW780 (Bladder Carcinoma)
Method in brief: as §1

[3] = tested on: HT-29 (Colorectal Carcinoma)
Method in brief: as §1

[4] = tested on: DMS-273 (Small Cell Lung Carcinoma)
Method in brief: as §1

[5] = tested on: HCC2157 (Breast Carcinoma)
Method in brief: as §1

[6] = tested on: U-266 (Plasma Cell Myeloma)
Method in brief: as §1

[7] = tested on: TE-5 (Esophageal Squamous Cell Carcinoma)
Method in brief: as §1

SN12C (Kidney Carcinoma) = tested on: SN12C (Kidney Carcinoma)
Method in brief: as §1

[8] = tested on: SUIT-2 (Pancreatic Carcinoma)
Method in brief: as §1

[9] = tested on: NALM-6 (B-Lymphoblastic Leukemia)
Method in brief: as §1

[10] = tested on: HPAC (Pancreatic Carcinoma)
Method in brief: as §1

[11] = tested on: DB (B-Cell Non-Hodgkin's Lymphoma)
Method in brief: as §1

[12] = tested on: DOV13 (Ovarian Carcinoma)
Method in brief: as §1

[13] = tested on: SNU-C5 (Colorectal Carcinoma)
Method in brief: as §1

[14] = tested on: EM-2 (Chronic Myelogenous Leukemia)
Method in brief: as §1

DSH1 (Bladder Carcinoma) = tested on: DSH1 (Bladder Carcinoma)
Method in brief: as §1

[15] = tested on: COR-L23 (Non-Small Cell Lung Carcinoma)
Method in brief: as §1

[16] = tested on: CTV-1 (T-Lymphoblastic Leukemia)
Method in brief: as §1

[17] = tested on: LU-99A (Non-Small Cell Lung Carcinoma)
Method in brief: as §1

| SMILES | Bliss excess (SK-N-FI (Neuroblastoma)) | Bliss excess [1] | Bliss excess [2] | Bliss excess [3] | Bliss excess [4] | Bliss excess [5] | Bliss excess [6] | Bliss excess [7] | Bliss excess (SN12C (Kidney Carcinoma)) | Bliss excess [8] | Bliss excess [9] | Bliss excess [10] | Bliss excess [11] | Bliss excess [12] | Bliss excess [13] | Bliss excess [14] | Bliss excess (DSH1 (Bladder Carcinoma)) | Bliss excess [15] | Bliss excess [16] | Bliss excess [17] |
| --- | --- | --- | --- | --- | --- | --- | --- | --- | --- | --- | --- | --- | --- | --- | --- | --- | --- | --- | --- | --- |
| CC1(C)CCC(CN2CCN(c3ccc(C(=O)NS(=O)(=O)c4ccc(NCC5CCOCC5)c([N+](=O)[O-])c4)c(Oc4cnc5[nH]ccc5c4)c3)CC2)=C(c2ccc(Cl)cc2)C1 [Venetoclax] + CN(C)CCCOc1ccc(-c2ccc3ncc4c(c3c2)n(C2CCOCC2)c(=O)n4C)cn1 [AZD0156] (first compound max 1 µM, 7x7, partner max 1 µM) | 0 | -0.0651 | -0.0031 | -0.0086 | 0.0156 | 0.0314 | 0.0264 | -0.0248 | -0.0307 | 0.0031 | 0.0426 | -0.0146 | -0.0166 | -0.0231 | -0.0123 | -0.0045 | -0.0305 | -0.0064 | -0.0103 | -0.0375 |
| CN(C)CCCOc1ccc(-c2ccc3ncc4c(c3c2)n(C2CCOCC2)c(=O)n4C)cn1 [AZD0156] + O=C(c1cc(Cc2n[nH]c(=O)c3ccccc23)ccc1F)N1CCN(C(=O)C2CC2)CC1 [Olaparib] (first compound max 3 µM, partner max 3 µM) | -0.0123 | 0.022 | -0.0007 | 0.015 | 0.155 | 0.0313 | -0.106 | -0.0241 | -0.0357 | 0.028 | 0.173 | 0.0152 | 0.149 | 0.0258 | 0.0621 | 0.0753 | 0.0328 | -0.0155 | 0.0654 | -0.0145 |
| C[C@@H](c1ccc2nccn2c1)n1nnc2ncc(-c3cnn(C)c3)nc21 [Savolitinib] + Cc1c2c(nn1C)CSCc1cc(n(C)n1)CSc1cc(c3ccccc3c1)OCCCc1c(C(=O)O)n(C)c3c-2c(Cl)ccc13 [AZD5991] (first compound max 1 µM, 7x7, partner max 1 µM) | -0.0077 | 0.021 | -0.0487 | -0.0297 | -0.0356 | -0.0289 | -0.0655 | -0.027 | -0.0535 | -0.0224 | -0.0141 | -0.0586 | 0.0299 | -0.0518 | -0.05 | -0.0401 | 0.0335 | -0.048 | -0.0223 | -0.0346 |
| Cc1cc2ncnn2cc1Nc1ncc2c(n1)n(C1CCOCC1)c(=O)n2C [AZD7648] + C=CCn1c(=O)c2cnc(Nc3ccc(N4CCN(C)CC4)cc3)nc2n1-c1cccc(C(C)(C)O)n1 [AZD1775] (first compound max 10 µM, partner max 1 µM) | -0.0415 | -0.0479 | 0.0146 | -0.0091 | -0.0349 | -0.0133 | -0.0457 | -0.0386 | -0.0188 | -0.0403 | -0.041 | 0.0067 | -0.0984 | -0.0795 | 0.0457 | -0.015 | 0.0281 | -0.0588 | 0.0096 | -0.0262 |
| CC1(C)CCC(CN2CCN(c3ccc(C(=O)NS(=O)(=O)c4ccc(NCC5CCOCC5)c([N+](=O)[O-])c4)c(Oc4cnc5[nH]ccc5c4)c3)CC2)=C(c2ccc(Cl)cc2)C1 [Venetoclax] + C1CN(CCC1(C(=O)N[C@@H](CCO)C2=CC=C(C=C2)Cl)N)C3=NC=NC4=C3C=CN4 [Capivasertib] (first compound max 1 µM, 7x7, partner max 3 µM) | 0.0002 | -0.0578 | -0.0335 | -0.0325 | 0.0443 | -0.0055 | -0.071 | -0.0197 | -0.0557 | -0.0663 | 0.0346 | -0.0234 | 0.0332 | -0.0028 | -0.0069 | -0.0593 | -0.0642 | -0.0525 | -0.0319 | -0.0702 |
| NC1(C(=O)N[C@@H](CCO)c2ccc(Cl)cc2)CCN(c2ncnc3[nH]ccc23)CC1 [Capivasertib] + C[C@@H]1COCCN1C2=NC(=NC(=C2)C3(CC3)[S@](=N)(=O)C)C4=C5C=CNC5=NC=C4 [AZD6738] (first compound max 10 µM, 7x7, partner max 10 µM) | -0.0529 | -0.0619 | -0.0216 | -0.0396 | -0.0377 | -0.0175 | -0.0793 | -0.0345 | -0.0044 | -0.0351 | -0.0686 | -0.0425 | -0.0769 | -0.062 | -0.0645 | -0.0512 | -0.064 | -0.0358 | 0.0489 | -0.0059 |
| NC1(C(=O)N[C@@H](CCO)c2ccc(Cl)cc2)CCN(c2ncnc3[nH]ccc23)CC1 [Capivasertib] + Cn1cnc2c(F)c(Nc3ccc(Br)cc3Cl)c(C(=O)NOCCO)cc21 [Selumetinib] (first compound max 10 µM, 7x7, partner max 10 µM) | -0.0313 | 0.0342 | 0.0066 | -0.0119 | -0.003 | 0.017 | 0.0745 | 0.0457 | 0.0041 | -0.0181 | 0.0323 | 0.0152 | -0.0093 | -0.0314 | 0.0154 | 0.0766 | 0.121 | 0.0071 | 0.106 | -0.0222 |
| NC1(C(=O)N[C@@H](CCO)c2ccc(Cl)cc2)CCN(c2ncnc3[nH]ccc23)CC1 [Capivasertib] + CCN(CCO)CCCOc1ccc2c(Nc3cc(CC(=O)Nc4cccc(F)c4)[nH]n3)ncnc2c1 [AZD2811] (first compound max 10 µM, 7x7, partner max 1 µM) | -0.0265 | -0.0088 | 0.015 | -0.0137 | -0.0015 | -0.0286 | -0.105 | -0.0283 | -0.0536 | -0.0074 | -0.0987 | -0.049 | 0.0338 | -0.0392 | -0.0571 | -0.0463 | -0.0694 | -0.0446 | 0.0423 | 0.0154 |
| CC(=O)Nc1cccc(-n2c(=O)n(C3CC3)c(=O)c3c(Nc4ccc(I)cc4F)n(C)c(=O)c(C)c32)c1 [Trametinib] + Cc1nc(-c2cn3c(n2)-c2ccc(-c4cnn(C(C)(C)C(N)=O)c4)cc2OCC3)n(C(C)C)n1 [Taselisib] (first compound max 1 µM, 7x7, partner max 10 µM) | 0.033 | 0.0579 | 0.129 | 0.0526 | 0.0427 | 0.0554 | 0.181 | 0.101 | 0.0395 | 0.0928 | -0.0228 | 0.0762 | -0.004 | 0.136 | 0.0951 | 0.319 | 0.0704 | 0.162 | 0.328 | 0.116 |
| CN(CCO)CC[C@H](CSc1ccccc1)Nc1ccc(S(=O)(=O)NC(=O)c2ccc(N3CCC([C@@H](O)c4ccccc4-c4ccc(Cl)cc4)CC3)cc2)cc1S(=O)(=O)C(F)(F)F [AZD4320] + C=CCn1c(=O)c2cnc(Nc3ccc(N4CCN(C)CC4)cc3)nc2n1-c1cccc(C(C)(C)O)n1 [AZD1775] (first compound max 1 µM, partner max 1 µM) | -0.0331 | 0.0064 | 0.0079 | 0.0055 | -0.0229 | -0.0386 | 0.1 | 0.0773 | -0.0099 | -0.0088 | 0.0725 | -0.0048 | 0.0616 | 0.0352 | -0.0062 | -0.0381 | 0.0646 | -0.006 | -0.0115 | 0.0007 |
| Cc1cc2ncnn2cc1Nc1ncc2c(n1)n(C1CCOCC1)c(=O)n2C [AZD7648] + CN(C)CCCOc1ccc(-c2ccc3ncc4c(c3c2)n(C2CCOCC2)c(=O)n4C)cn1 [AZD0156] (first compound max 10 µM, 7x7, partner max 1 µM) | 0.0029 | -0.0698 | -0.0069 | 0.0289 | 0.05 | 0.0081 | 0.018 | -0.0362 | -0.0388 | -0.0125 | -0.0184 | -0.0025 | -0.0402 | -0.0169 | 0.0202 | 0.0183 | 0.0171 | -0.0212 | 0.0449 | -0.0208 |
| C=CCn1c(=O)c2cnc(Nc3ccc(N4CCN(C)CC4)cc3)nc2n1-c1cccc(C(C)(C)O)n1 [AZD1775] + C1CN(CCC1(C(=O)N[C@@H](CCO)C2=CC=C(C=C2)Cl)N)C3=NC=NC4=C3C=CN4 [Capivasertib] (first compound max 3 µM, partner max 3 µM) | -0.0442 | -0.0707 | 0.0017 | -0.0357 | -0.0053 | -0.0183 | -0.0704 | 0.0129 | -0.0516 | -0.017 | -0.0371 | -0.0611 | -0.0264 | 0.0339 | -0.034 | -0.0724 | 0.0495 | 0.0185 | 0.0399 | -0.0106 |
